# Experiment: Numerical simulations (Comsol Multiphysics) of small-molecule concentration dynamics with porous beads and conical microwells
# Conditions: 225 μm diameter beads
smiles,measurement,value
O=C1OC2(c3ccc(O)cc3Oc3cc(O)ccc32)c2ccccc21 [fluorescein],"diffusion coefficient in the bead, Db, corresponding to measured t1/2",0.125 μm^2/s
